Measured values: publication PMC2201222 (The Journal of General Physiology, 1968)

How the values were obtained:
[1] = Electrical resistance and potential of thin lipid; set-up: species or system sheep; conditions: about 22C, unbuffered pH 5.6
[2] = Activity toward Na+-K+ transport across sheep red cell and thin lipid membranes; conditions: for selectivity for K+ over Na+ (section heading of Table II): sheep red cells and thin lipid membranes
[3] = general statement, no method or reference given; cited from earlier work
[4] = format: physicochemical; conditions: read-out by bilayer resistance

For Gramicidin B, which “Bilayers, TNa/TK (ratio of the transference number for Na+ to that for K+)” value ([1]; compound 10^-6 M) is on record?
Its value is 0.4.

And the “selectivity for K+ over Na+ (section heading of Table II)” value (from here on “selectivity for K+ over Na+”) [2]?
Its value is “moderate to low selectivity”.

Which results are given for `C[C@@H]1C[C@H]2CC[C@H](O2)[C@H](C)C(=O)O[C@@H](C)C[C@@H]2CC[C@@H](O2)[C@@H](C)C(=O)O[C@H](C)C[C@H]2CC[C@H](O2)[C@H](C)C(=O)O[C@@H](C)C[C@@H]2CC[C@@H](O2)[C@@H](C)C(=O)O1` [Nonactin, nonactin]?
Bilayers, TNa/TK (ratio of the transference number for Na+ to that for K+) ([1]; compound 10^-7 M): < 0.01; selectivity for K+ over Na+ (section heading of Table II) [2]: high selectivity

Which “Bilayers, TNa/TK (ratio of the transference number for Na+ to that for K+)” value ([1]; compound 10^-6 M) does the source give for `CO[C@@H]1C[C@@H](C[C@H]2CC[C@H](C)[C@H]([C@@H](C)C(=O)O)O2)O[C@]2(O[C@](C)([C@H]3CC[C@@](C)([C@@H]4O[C@@H]([C@H]5O[C@@](O)(CO)[C@H](C)C[C@@H]5C)C[C@@H]4C)O3)C[C@H]2C)[C@@H]1C` [Nigericin] here?
The value was < 0.I.

And the “selectivity for K+ over Na+” value [2]?
Its value is “moderate to low selectivity”.

With Vernamycin as the compound, how does the “activity on cation selectivity (section heading of Table II)” value (“activity on cation selectivity” for short) ([2]; maximum conc. tested 10^-5 M) read?
The value was “Inactive”.

With Phalloidin as the compound, how does the “activity on cation selectivity” value ([2]; maximum conc. tested 10^-4 M) read?
Its value is “Inactive”.

For Viridogrisein, which “activity on cation selectivity” value ([2]; maximum conc. tested 10^-6 M) is on record?
The value was “Inactive”.

With Polymixin B as the compound, how does the “activity on cation selectivity” value ([2]; maximum conc. tested 10^-5 M) read?
The value was “Inactive”.

With Gramicidin C as the compound, how does the “selectivity for K+ over Na+” value [2] read?
The value was “moderate to low selectivity”.

Which “selectivity for K+ over Na+” value [2] does the source give for Gramicidin A here?
Its value is “moderate to low selectivity”.

Which “activity on cation selectivity” value ([2]; maximum conc. tested 10^-6 M) does the source give for Bacitracin A here?
The value was “Inactive”.

For `C=C1NC(=O)CC[C@@H](C(=O)O)NC(=O)[C@H](NC(=O)[C@H](CCCCN)NC(=O)[C@@H](N)Cc2c[nH]c3ccccc23)CSC[C@@H](C(=O)N[C@@H]2C(=O)N3CCC[C@H]3C(=O)NCC(=O)N[C@H](C(=O)N[C@H](C(=O)N[C@@H]3C(=O)NCC(=O)N[C@@H](C)C(=O)N[C@@H](CC(C)C)C(=O)N[C@@H](CCC(N)=O)C(=O)N/C(=C/C)C(=O)N[C@H](C(=O)N[C@@H](Cc4ccccc4)C(=O)N[C@@H](CC(C)C)C(=O)N[C@@H](CCC(N)=O)C(=O)N[C@@H]4C(=O)N[C@@H](CC(C)C)C(=O)N[C@H]5C(=O)N[C@@H](CSC4C)C(=O)NC(=O)[C@H](CC(N)=O)N[C@H](C(=O)N[C@@H](CCCCN)C(=O)N[C@H](C(=O)NC(=C)C(=O)N[C@@H](CCCCN)C(=O)O)[C@@H](C)CC)CSC5C)CSC3C)C(C)C)CSC2C)N[C@@H](CC(C)C)C(=O)NC1=O` (some centres unmarked) [Subtilin], which “activity on cation selectivity” value ([2]; maximum conc. tested 10^-6 M) is on record?
Its value is “Inactive”.

Which solubility in water [3] does the source give for `CC(C)[C@@H]1NC(=O)[C@H](C)OC(=O)[C@@H](C(C)C)NC(=O)[C@@H](C(C)C)OC(=O)[C@H](C(C)C)NC(=O)[C@H](C)OC(=O)[C@@H](C(C)C)NC(=O)[C@@H](C(C)C)OC(=O)[C@H](C(C)C)NC(=O)[C@H](C)OC(=O)[C@@H](C(C)C)NC(=O)[C@@H](C(C)C)OC1=O` [Valinomycin, valinomycin] here?
Its solubility in water is “almost insoluble”.

What about the “Partition coefficient between decane and NaCl (0.1 M), compared with KCl (0.1 M)” value ([4]; aqueous phase NaCl (0.1 M)) of the same compound?
The value was “the same”.

And the “Partition coefficient between decane and pure H2O, compared with KCl (0.1 M)” value ([4]; aqueous phase pure H2O)?
The value was “the same”.
